# Laboratory results reported in article PMC9318802, “Optimization of 2-Aminoquinazolin-4-(3H)-one Derivatives as Potent Inhibitors of SARS-CoV-2: Improved Synthesis and Pharmacokinetic Properties” (Pharmaceuticals, 2022).
# “Also recorded” adds a separate entry of the source. Where two headings read alike, the source gives them in different places.
# Key:
# [1] = system: SARS-CoV-2; assay: Anti-SARS-CoV-2 immunofluorescence assay in Vero cells; assay type: cell-based; settings: for IC50: Severe acute respiratory syndrome coronavirus 2, immunofluorescence, at least two independent experiments
# [2] = Cytotoxicity (CC50) in uninfected Vero cells; settings: African green monkey
# [3] = in vitro; settings: African green monkey
# [4] = rats, oral, 10 mg/kg; ref previously reported; cited from earlier work
# [5] = system: Vero cells; settings: Vero cell assay, previously reported; cited from earlier work
# [6] = design: method as in PMID 34914868, PMID 34914869; settings: cited from earlier work
# [7] = target: hERG K+ channel (Homo sapiens, UniProt Q12809); assay: cell-based
# hERG K+ channel, sequence (Q12809 whole entry): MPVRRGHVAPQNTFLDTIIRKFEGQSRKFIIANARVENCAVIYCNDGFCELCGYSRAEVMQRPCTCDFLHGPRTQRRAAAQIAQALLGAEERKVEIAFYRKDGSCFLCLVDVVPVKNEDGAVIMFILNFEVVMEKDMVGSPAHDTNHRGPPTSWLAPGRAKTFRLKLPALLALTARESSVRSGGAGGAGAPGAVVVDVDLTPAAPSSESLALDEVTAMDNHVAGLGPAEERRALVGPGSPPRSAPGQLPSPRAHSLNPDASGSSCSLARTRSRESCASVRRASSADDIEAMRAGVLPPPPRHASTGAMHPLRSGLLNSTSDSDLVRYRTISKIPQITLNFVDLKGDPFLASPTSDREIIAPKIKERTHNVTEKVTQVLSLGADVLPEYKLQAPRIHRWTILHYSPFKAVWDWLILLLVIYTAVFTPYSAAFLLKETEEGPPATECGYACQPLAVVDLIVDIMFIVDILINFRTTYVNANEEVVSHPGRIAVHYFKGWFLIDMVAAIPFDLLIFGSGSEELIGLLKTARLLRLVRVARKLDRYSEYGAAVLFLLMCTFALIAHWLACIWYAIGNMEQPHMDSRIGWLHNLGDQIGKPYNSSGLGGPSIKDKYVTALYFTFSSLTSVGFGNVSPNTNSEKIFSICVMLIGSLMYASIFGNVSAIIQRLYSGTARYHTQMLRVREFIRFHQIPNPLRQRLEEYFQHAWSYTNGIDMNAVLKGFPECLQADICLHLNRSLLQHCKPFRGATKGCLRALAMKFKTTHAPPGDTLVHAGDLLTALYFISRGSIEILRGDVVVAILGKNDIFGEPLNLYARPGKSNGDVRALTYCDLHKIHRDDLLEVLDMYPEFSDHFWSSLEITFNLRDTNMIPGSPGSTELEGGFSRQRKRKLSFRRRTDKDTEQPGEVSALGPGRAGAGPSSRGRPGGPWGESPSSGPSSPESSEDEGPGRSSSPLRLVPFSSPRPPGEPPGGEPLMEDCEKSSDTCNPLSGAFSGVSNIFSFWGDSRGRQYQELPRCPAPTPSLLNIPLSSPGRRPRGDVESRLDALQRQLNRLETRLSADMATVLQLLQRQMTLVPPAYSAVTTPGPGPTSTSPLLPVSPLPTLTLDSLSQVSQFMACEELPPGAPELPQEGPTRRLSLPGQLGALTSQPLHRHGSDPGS
# [8] = EZ-Cytox cell viability assay, NIH 3T3; settings: mouse, Cytotoxicity (CC50) NIH 3T3, EZ-Cytox
# [9] = system: NIH 3T3, mouse embryonic fibroblast cells; assay: EZ-Cytox cell viability assay, NIH 3T3; settings: read-out: Cytotoxicity (CC50) NIH 3T3; EZ-Cytox, 24 h
# [10] = system: SARS-CoV-2 spike pseudo-typed lentivirus; assay: microbe, parasite or virus in culture; assay type: cell-based; settings: Severe acute respiratory syndrome coronavirus 2, NCI-H1299, 48 h; read-out: IC50 (SARS-CoV-2 spike pseudo-typed virus entry)
# [11] = In vivo oral pharmacokinetics in Sprague Dawley rats; settings: rat, blood, male Sprague Dawley rats, 10 mg/kg; for Cmax / Tmax / half-life: n = 3; for AUC(0-t): n = 3, read-out: AUC24h
# Experimental: Compounds 2a–c were selected for in vivo pharmacokinetic studies based on their ClogP and selectivity index (SI) values. Each compound was administered orally at 10 mg/kg to three Sprague Dawley rats (Figure 2). […] The lipophilic properties and the small size of the fluorine moieties likely enhance the absorption of compound 2b.
# Figure 2 Pharmacokinetic evaluation of compounds 1a, 2a, 2b, and 2c. Each compound was orally administrated to male Sprague Dawley rats (n = 3) at 10 mg/kg. TEXT PRINTED IN THE PICTURE: 1a: Tmax (h): 2.50; Cmax (μg/mL): 0.87; T1/2 (h): 5.65; AUC24h (μg·h/mL): 6.62 | 2a: Tmax (h): 4.67; Cmax (μg/mL): 1.85; T1/2 (h): 4.95; AUC24h (μg·h/mL): 24.31 | 2b: Tmax (h): 4.00; Cmax (μg/mL): 5.56; T1/2 (h): 1.96; AUC24h (μg·h/mL): 41.57 | 2c: Tmax (h): 3.33; Cmax (μg/mL): 1.96; T1/2 (h): 6.69; AUC24h (μg·h/mL): 10.77
# [12] = EZ-Cytox cell viability assay, HFL-1; settings: human, Cytotoxicity (CC50) HFL-1, EZ-Cytox
# [13] = Microsomal stability assay, human liver microsomes; settings: percentage of original compound remaining after 30 min incubation, NADPH
# [14] = in vitro; settings: Chinese hamster, Cytotoxicity (CC50) CHO-K1, EZ-Cytox, 24 h
# [15] = EZ-Cytox cell viability assay, L929; settings: mouse, Cytotoxicity (CC50) L929, EZ-Cytox
# [16] = Microsomal stability assay, rat liver microsomes; settings: percentage of original compound remaining after 30 min incubation, NADPH
# [17] = In vivo single-dose toxicity in male Sprague Dawley rats; design: species or system rat; settings: for Clinical signs: animals with liquid feces: n = 4, recovered by day 4; for Body weight change: recovered on day 14
# Experimental: After single administration using 55% PEG200 in distilled water as a vehicle, each group of four rats was monitored for 15 days. […] Therefore, the approximate lethal dose of compound 2b in this study was estimated to be more than 500 mg/kg.
# Figure 3 Body weight changes in male rats (n = 4) treated with compound 2b in a single-dose toxicity study. ** p < 0.01, compared to the control at the same time point (Dunnett’s test).
# [18] = CC50/IC50 for inhibiting SARS-CoV-2 infection, Vero cells
compound,measurement,setting,value
"COC(=O)N(c1cc(Cl)cc(Cl)c1)c1nc2cc(Cl)ccc2c(=O)[nH]1 [Compound 6b, Methyl (7-Chloro-4-oxo-3,4-dihydroquinazolin-2-yl)(3,5-dichlorophenyl)carbamate]",IC50,[1]; Vero cells,7050 nM
same,CC50 at 24 h,[2]; uninfected Vero cells,> 25 µM
same,melting point,,218 to 220 °C
"CN(c1cc(Cl)cc(Cl)c1)c1nc2cc(Cl)ccc2c(=O)[nH]1 [Compound 6c, 7-Chloro-2-((3,5-dichlorophenyl)(methyl)amino)quinazolin-4(3H)-one]",IC50,[1]; Vero cells,5660 nM
same,CC50 at 24 h,[3],> 25 µM
same,melting point,,287 to 289 °C
"O=c1[nH]c(Nc2cc(Cl)cc(Cl)c2)nc2cc(Cl)ccc12 [Compound 1a, 7-Chloro-2-((3,5-dichlorophenyl)amino)quinazolin-4(3H)-one]",IC50,[1]; Vero cells,230 nM
same,CC50 at 24 h,[3],> 25 µM
same,AUC24h,[4],6.62 µg·h/mL
same,Cmax,[4],0.87 µg/mL
same,Cytotoxicity,[5],no cytotoxicity
"O=c1[nH]c(Nc2cc(Cl)cc(Cl)c2)nc2cccc(O)c12 [Compound 5c, 2-((3,5-Dichlorophenyl)amino)-5-hydroxyquinazolin-4(3H)-one]",SI (selectivity index),[1]; [18],> 168
same,IC50,[1]; Vero cells,150 nM
same,CC50 at 24 h,[3],> 25 µM
same,melting point,,> 300 °C
CC(C)C(=O)OC[C@H]1O[C@@H](n2ccc(NO)nc2=O)[C@H](O)[C@@H]1O [molnupiravir],Incidence of hospitalization or death at day 29,[6]; 48 out of 709 patients,6.8%
same,Reduction in COVID-19-related hospitalization or death,[6]; versus placebo,30%
"CC(=O)N(c1cc(Cl)cc(Cl)c1)c1nc2cc(Cl)ccc2c(=O)[nH]1 [Compound 2a, N-(7-Dichloro-4-oxo-3,4-dihydroquinazolin-2-yl)-N-(3,5-dichlorophenyl)acetamide]",IC50,[7],15.2 µM
same,CC50 at 24 h,[8],< 10 µM
same,CC50,[9],7.6 µM
same,SI (selectivity index),[1],26
same,IC50,[1]; Vero cells,330 nM
same,IC50,[10],540 nM
same,CC50 at 24 h,[3],9.39 µM
same,Cmax,[11],1850 ng/mL
same,Tmax,[11],4.67 h
same,half-life,[11],297 min
same,AUC(0-t),[11],24300 ng·h/mL
same,melting point,,236 to 238 °C
"CC(=O)N(c1cc(Cl)cc(Cl)c1)c1nc2cccc(O)c2c(=O)[nH]1 [Compound 2c, N-(3,5-Dichlorophenyl)-N-(5-hydroxy-4-oxo-3,4-dihydroquinazolin-2-yl)acetamide]",IC50,[7],> 50 µM
same,CC50 at 24 h,[8],59.9 µM
same,CC50 at 24 h,[12],13.7 µM
same,IC50,[1]; Vero cells,110 nM
same,Microsomal Stability (%) Human,[13],10%
same,CC50 at 24 h,[3],> 25 µM
same,CC50,[14],17.1 µM
same,Cmax,[11],1960 ng/mL
same,Tmax,[11],3.33 h
same,half-life,[11],401 min
same,AUC(0-t),[11],10800 ng·h/mL
same,CC50 at 24 h,[15],42.7 µM
same,Microsomal Stability (%) Rat,[16],57%
"CCC(=O)N(c1cc(Cl)cc(Cl)c1)c1nc2cc(Cl)ccc2c(=O)[nH]1 [Compound 6a, N-(7-Chloro-4-oxo-3,4-dihydroquinazolin-2-yl)-N-(3,5-dichlorophenyl)propionamide]",SI (selectivity index),[1]; [18],> 117
same,IC50,[1]; Vero cells,210 nM
same,CC50 at 24 h,[3],> 25 µM
same,melting point,,223 to 225 °C
"O=C1CC2(CCCC2)CC(=O)N1CCCCN1CCN(c2ncccn2)CC1 [buspirone, reference compound]",Microsomal Stability (%) Human,[13],< 10%
same,Microsomal Stability (%) Rat,[16],< 5%
"CCC(CC)COC(=O)[C@H](C)N[P@](=O)(OC[C@H]1O[C@@](C#N)(c2ccc3c(N)ncnn23)[C@H](O)[C@@H]1O)Oc1ccccc1 [Remdesivir, reference compound]",SI (selectivity index),[1],> 14
same,IC50,[1]; Vero cells,3470 nM
same,CC50 at 24 h,[2],> 50 µM
"Cc1ccc(S(=O)(=O)N(c2cc(Cl)cc(Cl)c2)c2nc3cc(Cl)ccc3c(=O)[nH]2)cc1 [Compound 6d, N-(7-Chloro-4-oxo-3,4-dihydroquinazolin-2-yl)-N-(3,5-dichlorophenyl)-4-methylben-zenesulfonamide]",SI (selectivity index),[1]; [18],> 44
same,IC50,[1]; Vero cells,570 nM
same,CC50 at 24 h,[3],> 25 µM
same,melting point,,163 to 165 °C
"CC(=O)N(c1cc(F)cc(F)c1)c1nc2cc(Cl)ccc2c(=O)[nH]1 [Compound 2b, N-(7-Chloro-4-oxo-3,4-dihydroquinazolin-2-yl)-N-(3,5-difluorophenyl)acetamide]",IC50,[7],30 µM
same,CC50 at 24 h,[8],22.7 µM
same,CC50 at 24 h,[12],12.6 µM
same,IC50,[1]; Vero cells,290 nM
same,Clinical signs: animals with liquid feces,[17]; 250 mg/kg group,one animal
same,Body weight change,"[17]; 250 mg/kg, day 4, Dunnett's test",statistically significant reduction
same,Clinical signs: animals with liquid feces,[17]; 500 mg/kg group,two animals
same,Body weight change,"[17]; 500 mg/kg, days 4 and 8, Dunnett's test",statistically significant reduction
same,Gross observations of the organs,[17]; 250 and 500 mg/kg,did not reveal changes in any of the organs examined
same,Mortality,"[17]; single oral dose 250 and 500 mg/kg, monitored 15 days",no deaths; also recorded: no mortality; also recorded: no animals died
same,Approximate lethal dose,"[17]; single oral dose, male rats",greater than 500 mg/kg
same,IC50,[10],990 nM
same,CC50 at 24 h,[3],> 25 µM
same,CC50,[14],14.6 µM
same,Cmax,[11],5560 ng/mL
same,Tmax,[11],4 h
same,half-life,[11],118 min
same,AUC(0-t),[11],41600 ng·h/mL
same,CC50 at 24 h,[15],17.9 µM
O=C(C(O)OCc1ccccc1)N(c1cc(Cl)cc(Cl)c1)c1nc2cc(Cl)ccc2c(=O)[nH]1 (stereo not shown),melting point,,282 to 284 °C
"O=C(CO)N(c1cc(Cl)cc(Cl)c1)c1nc2cc(Cl)ccc2c(=O)[nH]1 [Compound 8, N-(7-Chloro-4-oxo-3,4-dihydroquinazolin-2-yl)-N-(3,5-dichlorophenyl)-2-hydroxy-acetamide]",SI (selectivity index),[1]; [18],> 10
same,IC50,[1]; Vero cells,2570 nM
same,CC50 at 24 h,[3],> 25 µM
same,melting point,,263 to 265 °C
"O=c1[nH]c(Nc2cc(F)cc(F)c2)nc2cc(Cl)ccc12 [Compound 1b, 7-Chloro-2-((3,5-difluorophenyl)amino)quinazolin-4(3H)-one]",SI (selectivity index),[1]; [18],74
same,IC50,[1]; Vero cells,240 nM
same,CC50 at 24 h,[3],18 µM
